How the values were obtained:
Type in all cases: functional
OVCAR-4 = assay: Cytotoxicity against human OVCAR4 cells assessed as cell growth at 0.1 uM after 48 hrs by sulforhodamine B assay relative to control; details: OVCAR-4, 48 h, read-out: Activity
ACHN [1] = assay: Cytotoxicity against human ACHN cells assessed as cell growth at 100 uM after 48 hrs by sulforhodamine B assay relative to control; details: read-out: Activity
SF-539 [2] = assay: Cytotoxicity against human SF539 cells assessed as cell growth at 0.01 uM after 48 hrs by sulforhodamine B assay relative to control; details: SF-539, 48 h, read-out: Activity
NCI-H522 = assay: Cytotoxicity against human NCI-H522 cells assessed as cell growth at 0.1 uM after 48 hrs by sulforhodamine B assay relative to control; details: NCI-H522, 48 h, read-out: Activity
HOP-62 [3] = assay: Cytotoxicity against human HOP62 cells assessed as growth inhibition after 48 hrs by sulforhodamine B assay; details: HOP-62, 48 h
MOLT-4 = assay: Cytotoxicity against human MOLT4 cells assessed as growth inhibition after 48 hrs by sulforhodamine B assay; details: MOLT-4, 48 h; for CC50: read-out: LC50 (the source's name)
BT-549 = assay: Cytotoxicity against human BT549 cells assessed as cell growth at 1 uM after 48 hrs by sulforhodamine B assay relative to control; details: BT-549, 48 h, read-out: Activity
NCI/ADR-RES = assay: Cytotoxicity against human NCI/ADR-RES cells assessed as cell growth at 0.1 uM after 48 hrs by sulforhodamine B assay relative to control; details: read-out: Activity
OVCAR-5 = assay: Cytotoxicity against human OVCAR5 cells assessed as growth inhibition after 48 hrs by sulforhodamine B assay; details: OVCAR-5, 48 h
SN12C = assay: Cytotoxicity against human SN12C cells assessed as cell growth at 0.01 uM after 48 hrs by sulforhodamine B assay relative to control; details: read-out: Activity
SK-MEL-28 = assay: Cytotoxicity against human SK-MEL-28 cells assessed as cell growth at 100 uM after 48 hrs by sulforhodamine B assay relative to control; details: SK-MEL-28, 48 h, read-out: Activity
HT-29 = assay: Cytotoxicity against human HT-29 cells assessed as growth inhibition after 48 hrs by sulforhodamine B assay; details: HT-29, 48 h
ACHN [4] = assay: Cytotoxicity against human ACHN cells assessed as cell growth at 10 uM after 48 hrs by sulforhodamine B assay relative to control; details: read-out: Activity
HCT-116 = assay: Cytotoxicity against human HCT116 cells assessed as cell growth at 1 uM after 48 hrs by sulforhodamine B assay relative to control; details: HCT-116, 48 h, read-out: Activity
NCI-H460 [5] = assay: Cytotoxicity against human NCI-H460 cells assessed as cell growth at 10 uM after 48 hrs by sulforhodamine B assay relative to control; details: NCI-H460, 48 h, read-out: Activity
DU-145 [6] = assay: Cytotoxicity against human DU145 cells assessed as cell growth at 1 uM after 48 hrs by sulforhodamine B assay relative to control; details: DU-145, 48 h, read-out: Activity
HL-60(TB) [7] = assay: Cytotoxicity against human HL-60(TB) cells assessed as cell growth at 100 uM after 48 hrs by sulforhodamine B assay relative to control; details: HL-60, 48 h, read-out: Activity
SF-539 [8] = assay: Cytotoxicity against human SF539 cells assessed as cell growth at 10 uM after 48 hrs by sulforhodamine B assay relative to control; details: SF-539, 48 h, read-out: Activity
DU-145 [9] = assay: Cytotoxicity against human DU145 cells assessed as cell growth at 0.1 uM after 48 hrs by sulforhodamine B assay relative to control; details: DU-145, 48 h, read-out: Activity
MDA-MB-231 = assay: Cytotoxicity against human MDA-MB-231 cells assessed as cell growth at 10 uM after 48 hrs by sulforhodamine B assay relative to control; details: MDA-MB-231, 48 h, read-out: Activity
HCC 2998 [10] = assay: Cytotoxicity against human HCC2998 cells assessed as cell growth at 1 uM after 48 hrs by sulforhodamine B assay relative to control; details: HCC 2998, 48 h, read-out: Activity
NCI-H23 = assay: Cytotoxicity against human NCI-H23 cells assessed as cell growth at 0.01 uM after 48 hrs by sulforhodamine B assay relative to control; details: NCI-H23, 48 h, read-out: Activity
SK-OV-3 = assay: Cytotoxicity against human SKOV3 cells assessed as growth inhibition after 48 hrs by sulforhodamine B assay; details: SK-OV-3, 48 h
NCI-H226 = assay: Cytotoxicity against human NCI-H226 cells assessed as growth inhibition after 48 hrs by sulforhodamine B assay; details: NCI-H226, 48 h
HOP-62 [11] = assay: Cytotoxicity against human HOP62 cells assessed as cell growth at 0.01 uM after 48 hrs by sulforhodamine B assay relative to control; details: HOP-62, 48 h, read-out: Activity
HOP-62 [12] = assay: Cytotoxicity against human HOP62 cells assessed as cell growth at 100 uM after 48 hrs by sulforhodamine B assay relative to control; details: HOP-62, 48 h, read-out: Activity
A498 = assay: Cytotoxicity against human A498 cells assessed as growth inhibition after 48 hrs by sulforhodamine B assay; details: A498, 48 h
MCF7 = assay: Cytotoxicity against human MCF7 cells assessed as growth inhibition after 48 hrs by sulforhodamine B assay; details: MCF7, 48 h
KM12 = assay: Cytotoxicity against human KM12 cells assessed as cell growth at 0.1 uM after 48 hrs by sulforhodamine B assay relative to control; details: KM12, 48 h, read-out: Activity
HL-60(TB) [13] = assay: Cytotoxicity against human HL-60(TB) cells assessed as cell growth at 1 uM after 48 hrs by sulforhodamine B assay relative to control; details: HL-60, 48 h, read-out: Activity
HCC 2998 [14] = assay: Cytotoxicity against human HCC2998 cells assessed as cell growth at 10 uM after 48 hrs by sulforhodamine B assay relative to control; details: HCC 2998, 48 h, read-out: Activity
NCI-H460 [15] = assay: Cytotoxicity against human NCI-H460 cells assessed as cell growth at 100 uM after 48 hrs by sulforhodamine B assay relative to control; details: NCI-H460, 48 h, read-out: Activity
HCT-15 = assay: Cytotoxicity against human HCT15 cells assessed as cell growth at 10 uM after 48 hrs by sulforhodamine B assay relative to control; details: HCT-15, 48 h, read-out: Activity
IGROV-1 = assay: Cytotoxicity against human IGROV1 cells assessed as cell growth at 0.01 uM after 48 hrs by sulforhodamine B assay relative to control; details: IGROV-1, 48 h, read-out: Activity
DU-145 [16] = assay: Cytotoxicity against human DU145 cells assessed as cell growth at 100 uM after 48 hrs by sulforhodamine B assay relative to control; details: DU-145, 48 h, read-out: Activity
CCRF-CEM = assay: Cytotoxicity against human CCRF-CEM cells assessed as cell growth at 0.1 uM after 48 hrs by sulforhodamine B assay relative to control; details: read-out: Activity

In the case of `COc1ccc(-c2cc(/C=C/C(=O)c3cc(OC)c(OC)c(OC)c3)[nH]n2)cc1OC`, the growth at 0.1 µM (OVCAR-4) is reported as 73%, the growth at 100 µM (ACHN [1]) is reported as -84% and the growth at 0.01 µM (SF-539 [2]) is reported as 95%. The growth at 0.1 µM (NCI-H522) was 86%, the GI50 (HOP-62 [3]) was 1.45 µM and the LC50 (HOP-62 [3]) was 8.85 µM. It also gave a TGI (HOP-62 [3]) of 3.58 µM, a GI50 (MOLT-4) of 1.81 µM and a TGI (MOLT-4) of 8.86 µM. It also gave a CC50 (MOLT-4) of over 100 µM, a growth at 1 µM (BT-549) of 70% and a growth at 0.1 µM (NCI/ADR-RES) of 97%. For the same compound, the GI50 (OVCAR-5) was 1.76 µM, the LC50 (OVCAR-5) was 13.7 µM and the TGI (OVCAR-5) was 4.31 µM. For the same compound, the growth at 0.01 µM (SN12C) was 98%, the growth at 100 µM (SK-MEL-28) was -82% and the GI50 (HT-29) was 1.3 µM. It also gave an LC50 (HT-29) of 5.75 µM, a TGI (HT-29) of 2.73 µM and a growth at 10 µM (ACHN [4]) of -95%. The growth at 1 µM (HCT-116) was 27%, the growth at 10 µM (NCI-H460 [5]) was -41% and the growth at 1 µM (DU-145 [6]) was 87%. It also gave a growth at 100 µM (HL-60(TB) [7]) of -8%, a growth at 10 µM (SF-539 [8]) of -85% and a growth at 0.1 µM (DU-145 [9]) of 103%. The growth at 10 µM (MDA-MB-231) was 11%, the growth at 1 µM (HCC 2998 [10]) was 105% and the growth at 0.01 µM (NCI-H23) was 94%. It also gave a GI50 (SK-OV-3) of 5.47 µM, an LC50 (SK-OV-3) of 45.5 µM and a TGI (SK-OV-3) of 19 µM. For the same compound, the GI50 (NCI-H226) was 1.93 µM, the LC50 (concentration killing 50% of cells) (NCI-H226) was over 100 µM and the TGI (NCI-H226) was 7.91 µM. For the same compound, the growth at 0.01 µM (HOP-62 [11]) was 92%, the growth at 100 µM (HOP-62 [12]) was -84% and the GI50 (A498) was 1.46 µM. It also gave an LC50 (A498) of 22.3 µM, a TGI (A498) of 4.99 µM and a GI50 (MCF7) of 1.06 µM. The TGI (MCF7) was 2.5 µM, the growth at 0.1 µM (KM12) was 92% and the growth at 1 µM (HL-60(TB) [13]) was 64%. For the same compound, the growth at 10 µM (HCC 2998 [14]) was -93%, the growth at 100 µM (NCI-H460 [15]) was -60% and the growth at 10 µM (HCT-15) was -41%. The growth at 0.01 µM (IGROV-1) was 103%, the growth at 100 µM (DU-145 [16]) was -88% and the growth at 0.1 µM (CCRF-CEM) was 91%.
`COc1ccc(-c2cc(/C=C/C(=O)c3ccc(OC)c(OC)c3)[nH]n2)cc1` gave a growth at 0.1 µM (OVCAR-4) of 77%, a growth at 100 µM (ACHN [1]) of -98% and a growth at 0.01 µM (SF-539 [2]) of 95%. For the same compound, the growth at 0.1 µM (NCI-H522) was 111%, the GI50 (HOP-62 [3]) was 2.35 µM and the LC50 (HOP-62 [3]) was 35.3 µM. For the same compound, the TGI (HOP-62 [3]) was 6.17 µM, the GI50 (MOLT-4) was 2.67 µM and the TGI (MOLT-4) was 8 µM. For the same compound, the CC50 (MOLT-4) was over 100 µM, the growth at 1 µM (BT-549) was 85% and the growth at 0.1 µM (NCI/ADR-RES) was 107%. It also gave a GI50 (OVCAR-5) of 1.65 µM, an LC50 (OVCAR-5) of 10.6 µM and a TGI (OVCAR-5) of 4.09 µM. It also gave a growth at 0.01 µM (SN12C) of 95%, a growth at 100 µM (SK-MEL-28) of -100% and a GI50 (HT-29) of 1.55 µM. For the same compound, the LC50 (HT-29) was 7.68 µM, the TGI (HT-29) was 3.45 µM and the growth at 10 µM (ACHN [4]) was -58%. The growth at 1 µM (HCT-116) was 51%, the growth at 10 µM (NCI-H460 [5]) was -43% and the growth at 1 µM (DU-145 [6]) was 74%. For the same compound, the growth at 100 µM (HL-60(TB) [7]) was -43%, the growth at 10 µM (SF-539 [8]) was -93% and the growth at 0.1 µM (DU-145 [9]) was 109%. The growth at 10 µM (MDA-MB-231) was -17%, the growth at 1 µM (HCC 2998 [10]) was 102% and the growth at 0.01 µM (NCI-H23) was 100%. The GI50 (SK-OV-3) was 5.56 µM, the LC50 (SK-OV-3) was 43.4 µM and the TGI (SK-OV-3) was 17.1 µM. For the same compound, the GI50 (NCI-H226) was 1.54 µM, the TGI (NCI-H226) was 3.51 µM and the growth at 0.01 µM (HOP-62 [11]) was 97%. The growth at 100 µM (HOP-62 [12]) was -71%, the GI50 (A498) was 1.42 µM and the LC50 (A498) was 8.87 µM. It also gave a TGI (A498) of 3.55 µM, a GI50 (MCF7) of 0.41 µM and an LC50 (MCF7) of 5.11 µM. For the same compound, the TGI (MCF7) was 1.76 µM, the growth at 0.1 µM (KM12) was 103% and the growth at 1 µM (HL-60(TB) [13]) was 86%. The growth at 10 µM (HCC 2998 [14]) was -68%, the growth at 100 µM (NCI-H460 [15]) was -63% and the growth at 10 µM (HCT-15) was -53%. It also gave a growth at 0.01 µM (IGROV-1) of 97%, a growth at 100 µM (DU-145 [16]) of -80% and a growth at 0.1 µM (CCRF-CEM) of 97%.

— ChEMBL document CHEMBL4138123, “Design, synthesis and biological evaluation of novel pyrazolochalcones as potential modulators of PI3K/Akt/mTOR pathway and inducers of apoptosis in breast cancer cells” (Eur J Med Chem, 2017)
